From US9051351B2, “Hepatocyte growth factor mimics as therapeutic agents” (Washington State University, priority 2011, dated 2015)
Where a SMILES comes first, the peptide text is derived from it. [ ]: non-standard residue; d: D form. The star is where a group is joined. Hexanoyl = CCCCCC(=O)*; Ahx = NCCCCCC(=O)O

Tested on: hippocampal neurons
Test: Immunocytochemistry: percent correlation of spines to synaptic markers
Assay type: cell-based, rat
Conditions: 10^−12 M, 5 days
Procedure: (§1) Transfected neurons were treated, fixed and stained. Briefly, cells were permeablized with 0.1% Triton X-100 detergent (Bio-Rad; Hercules, Calif.) for 10 minutes. An 8% bovine serum albumin (Intergen Company; Burlington, Mass.) in PBS was used to prevent non-specific binding for one hour at R.T.; Primary antibody incubations were at a 1:2500 dilution (see below) in 1% BSA in PBS at 4° C. overnight. Secondary antibody, 1:3000 Alexafluor 488 goat-anti-mouse (Invitrogen: Carlsbad, Calif.) was applied for two hours at room temperature. Coverslips were mounted with ProLong Gold anti-fade reagent (Invitrogen; Carlsbad, Calif.) and all washes were done with PBS. Imaging and analysis were performed as described above. For presynaptic excitatory transmission the VGLUT1 (Synaptic Systems, Goettingen, Germany) marker (Balschun, Moechars et al.) was employed and for general presynaptic transmission synapsin1 (Synaptic Systems, Goettingen, Germany) (Ferreira and Rapoport 2002) was applied. A postsynaptic function was established by PSD-95 (Milipore, Billerica, Mass.) (El-Husseini, Schnell et al. 2000). In each instance the total number of spines was counted for the treatment groups, control, Nle1-AngIV and Dihexa, to ensure an active phenotype. The total number of actin enriched spines adjacent to VGLUT1 or Synapsin were counted and converted to a percentage as the percent correlation of treatment-induced spines to presynaptic markers is a strong indicator of ability to transmit excitatory signals.
as §1, with “fixed and stained as previously described in Chapter two. Briefly, cells” for “fixed and stained. Briefly, cells”, “enriched spines (red) adjacent to” for “enriched spines adjacent to”
Transfected neurons were treated and fixed as described above. Following fixation, cells were rinsed in PBS and permeabilized with 0.1% Triton® X-100 detergent (Bin-Rad; Hercules, Calif.), followed by two rinses in PBS and blocked with 8% bovine serum albumin (Intergen Company; Burlington, Mass.) in PBS for 1 h. […]

## CCCCCC(=O)N[C@@H](Cc1ccc(O)cc1)C(=O)N[C@H](C(=O)NCCCCCC(N)=O)[C@@H](C)CC [Dihexa, N-hexanoic-Tyr-Ile-(6)-aminohexanoic amide] (Hexanoyl-Tyr-Ile-[Ahx]-NH2)
  percent correlation of treatment-induced spines to VGLUT1, Synapsin or PSD-95 vs control: did not differ from control treated neurons in the percent correlation
PSD-95 study
  Number of spines/50 μm: 43 spines/50 μm
Synapsin study
  Number of spines/50 μm: 37 spines/50 μm
VGLUT1 study
  Number of spines/50 μm: 44 spines/50 μm
